For 13 compounds, IC50 and Ki results are on record in ChEMBL document CHEMBL1909046, “DrugMatrix in vitro pharmacology data”.

The target of test [1] is T1, 5-hydroxytryptamine receptor 2C (Homo sapiens, UniProt P28335).
T1 sequence (P28335 whole entry): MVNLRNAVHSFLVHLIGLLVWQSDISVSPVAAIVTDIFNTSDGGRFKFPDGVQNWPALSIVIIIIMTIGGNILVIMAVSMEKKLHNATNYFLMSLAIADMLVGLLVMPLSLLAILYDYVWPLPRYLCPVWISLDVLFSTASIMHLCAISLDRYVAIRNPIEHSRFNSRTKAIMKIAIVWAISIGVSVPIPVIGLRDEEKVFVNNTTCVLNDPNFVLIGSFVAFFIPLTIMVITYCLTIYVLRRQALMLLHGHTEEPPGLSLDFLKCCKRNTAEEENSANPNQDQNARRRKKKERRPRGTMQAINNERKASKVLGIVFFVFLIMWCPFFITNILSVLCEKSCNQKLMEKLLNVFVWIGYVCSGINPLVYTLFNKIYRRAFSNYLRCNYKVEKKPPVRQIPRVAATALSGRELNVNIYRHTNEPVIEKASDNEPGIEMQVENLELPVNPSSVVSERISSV
As to the kind of experiment: DRUGMATRIX: Serotonin (5-Hydroxytryptamine) 5-HT2C radioligand binding (ligand: [3H] Mesulergine). Type of test: cell membranes, CHO-K1, Membrane. The settings on record: Not Active = under 50% inhibition at 10 µM; for Ki: read-out: Ki.

Test [2] can be described thus: DRUGMATRIX: Glutamate, AMPA radioligand binding (ligand: [3H] AMPA). Type of test: cell membranes, Rattus norvegicus, Wistar, Cerebral cortex, Membrane. The conditions noted are these: Not Active = under 50% inhibition at 10 µM.
In test [3] the target is T2, Interstitial collagenase (Homo sapiens, UniProt P03956).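 Note: MMP-1 enzyme inhibition assay using a peptide substrate; in other assays of this panel Not Active means under 50% inhibition at 10 µM.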
T2 sequence (P03956 whole entry): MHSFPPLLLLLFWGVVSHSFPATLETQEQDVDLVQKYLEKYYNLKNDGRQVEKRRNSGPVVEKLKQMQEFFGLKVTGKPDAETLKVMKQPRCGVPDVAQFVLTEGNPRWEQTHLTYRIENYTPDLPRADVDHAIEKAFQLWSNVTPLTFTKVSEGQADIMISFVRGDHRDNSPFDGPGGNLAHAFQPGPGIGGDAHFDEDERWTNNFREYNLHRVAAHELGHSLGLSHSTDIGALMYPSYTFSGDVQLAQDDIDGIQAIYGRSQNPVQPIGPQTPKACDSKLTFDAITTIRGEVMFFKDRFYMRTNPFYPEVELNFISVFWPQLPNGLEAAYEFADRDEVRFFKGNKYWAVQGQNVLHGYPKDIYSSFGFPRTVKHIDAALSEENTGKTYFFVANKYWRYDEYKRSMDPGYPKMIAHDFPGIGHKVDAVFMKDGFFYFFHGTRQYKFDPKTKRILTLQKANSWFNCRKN
As to the kind of experiment: biochemical. Type of test: tissue-based, Rheumatoid synovial fibroblasts.

Test [4] in a line: DRUGMATRIX: beta-Lactamase enzyme inhibition (substrate: Nitrocefin). More on the design: species or system Bacillus cereus. The settings on record: Not Active = under 50% inhibition at 10 µM.
Test [5] concerns the target T3, 3-hydroxy-3-methylglutaryl-coenzyme A reductase (Homo sapiens, UniProt P04035).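 Note: enzyme inhibition assay of HMG-CoA reductase using radiolabeled [14C]HMG-CoA as substrate; in other assays of this panel Not Active means under 50% inhibition at 10 µM.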
T3 sequence (P04035 whole entry): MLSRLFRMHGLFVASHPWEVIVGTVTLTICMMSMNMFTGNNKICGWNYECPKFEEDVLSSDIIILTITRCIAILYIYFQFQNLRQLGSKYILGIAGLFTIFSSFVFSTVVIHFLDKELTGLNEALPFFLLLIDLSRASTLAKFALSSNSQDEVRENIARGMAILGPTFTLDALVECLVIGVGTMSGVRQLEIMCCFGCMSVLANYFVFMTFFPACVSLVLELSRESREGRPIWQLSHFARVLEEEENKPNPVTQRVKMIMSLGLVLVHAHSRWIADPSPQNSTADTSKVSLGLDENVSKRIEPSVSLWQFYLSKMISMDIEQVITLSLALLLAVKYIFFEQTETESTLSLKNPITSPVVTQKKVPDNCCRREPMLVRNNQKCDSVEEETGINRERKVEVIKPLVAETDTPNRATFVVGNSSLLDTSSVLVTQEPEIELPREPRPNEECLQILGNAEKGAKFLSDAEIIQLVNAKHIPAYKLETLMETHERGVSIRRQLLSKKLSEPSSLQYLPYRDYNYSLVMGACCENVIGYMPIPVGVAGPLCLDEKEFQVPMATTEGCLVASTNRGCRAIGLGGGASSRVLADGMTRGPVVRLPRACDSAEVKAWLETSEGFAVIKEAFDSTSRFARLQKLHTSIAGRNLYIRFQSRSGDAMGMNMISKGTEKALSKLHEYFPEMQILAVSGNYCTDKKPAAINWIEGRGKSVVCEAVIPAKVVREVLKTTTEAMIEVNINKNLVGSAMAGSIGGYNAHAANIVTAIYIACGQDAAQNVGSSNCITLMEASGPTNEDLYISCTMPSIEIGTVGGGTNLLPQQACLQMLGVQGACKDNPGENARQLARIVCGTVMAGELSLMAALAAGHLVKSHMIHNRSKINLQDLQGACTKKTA
More on the design: species or system Escherichia coli.

Test [6] deals with T4, C-C chemokine receptor type 4 (Homo sapiens, UniProt P51679).
T4 sequence (P51679 whole entry): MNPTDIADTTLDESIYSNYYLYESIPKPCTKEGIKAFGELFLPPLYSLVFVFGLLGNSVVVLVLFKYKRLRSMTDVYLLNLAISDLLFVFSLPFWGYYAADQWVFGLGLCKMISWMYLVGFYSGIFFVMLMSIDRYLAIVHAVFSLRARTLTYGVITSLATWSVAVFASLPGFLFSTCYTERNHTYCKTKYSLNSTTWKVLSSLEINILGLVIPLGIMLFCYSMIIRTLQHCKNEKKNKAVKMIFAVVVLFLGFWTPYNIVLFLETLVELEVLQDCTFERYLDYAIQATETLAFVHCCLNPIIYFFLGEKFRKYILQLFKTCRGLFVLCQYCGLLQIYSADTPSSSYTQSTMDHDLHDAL
Type of test: cell membranes, Membrane. The settings on record: chem-1.

Test [7] in a line: DRUGMATRIX: GABAA, Flunitrazepam, Central radioligand binding (ligand: [3H] Flunitrazepam). The test is classed as cell membranes, Rattus norvegicus, Wistar, Brain, Membrane. The settings on record: Not Active = under 50% inhibition at 10 µM.

As a reminder, the IC50 is the point on the concentration scale where inhibition reaches its midpoint. For orientation: Ki means the dissociation constant of the complex between target and ligand, obtained from inhibition or displacement. As for `CN1CCN(c2c(F)cc3c(=O)c(C(=O)O)cn(CCF)c3c2F)CC1` [FLEROXACIN], the IC50 result in test [1] (cho-k1), in test [2], in test [3], in test [4], in test [5] and in test [6] was “Not Active” each time. Also, the IC50 result in test [7] is “Not Active”. In addition, the Ki entry in test [2], in test [4] and in test [7] was “Not Active” in each case.

As to `O=c1[nH]c(=O)n([C@H]2C[C@H](O)[C@@H](CO)O2)cc1F` [FLOXURIDINE], the concentration for half-maximal inhibition (IC50) result in test [1] (cho-k1), in test [2], in test [3], in test [4], in test [5] and in test [6] was “Not Active” throughout. Also, the IC50 result in test [7] is “Not Active”. The Ki result in test [2], in test [4] and in test [7] was “Not Active” throughout.

In the case of `COC(=O)Nc1nc2cc(C(=O)c3ccc(F)cc3)ccc2[nH]1` [FLUBENDAZOLE], the IC50 result in test [1] (cho-k1), in test [2], in test [3], in test [4], in test [5] and in test [6] was “Not Active” throughout. Besides, the IC50 result in test [7] is given as “Not Active”. The Ki result in test [2], in test [4] and in test [7] was “Not Active” throughout.

Consider `CC(=O)OCC(=O)[C@@]1(O)CC[C@H]2[C@@H]3CCC4=CC(=O)CC[C@]4(C)[C@@]3(F)[C@@H](O)C[C@@]21C` [FLUDROCORTISONE ACETATE], for which the half-inhibitory concentration (IC50) result in test [1] (cho-k1), in test [2], in test [3], in test [4], in test [5] and in test [6] was “Not Active” throughout. Also, in test [7], the IC50 entry is “Not Active”. Moreover, the Ki entry in test [2], in test [4] and in test [7] was “Not Active” throughout.

With `CCOC(=O)c1ncn2c1CN(C)C(=O)c1cc(F)ccc1-2` [FLUMAZENIL], the IC50 result in test [1] (cho-k1), in test [2], in test [3], in test [4], in test [5] and in test [6] was “Not Active” throughout. The IC50 in test [7] (read-out: IC50) stood at 3.87 nM. In addition, the inhibitory constant (Ki) entry in test [2] was “Not Active”; in test [4] it was “Not Active”; in test [7] (read-out: Ki) it was 3.15 nM.

`CC(=O)OCC(=O)[C@@]12OC(C)(C)O[C@@H]1C[C@H]1[C@@H]3C[C@H](F)C4=CC(=O)C=C[C@]4(C)[C@@]3(F)[C@@H](O)C[C@@]12C` [FLUOCINONIDE]: the IC50 result in test [1] (cho-k1), in test [2], in test [3], in test [4], in test [5] and in test [6] was “Not Active” in each case. The IC50 entry in test [7] was “Not Active”. The Ki result in test [2], in test [4] and in test [7] was “Not Active” throughout.

In the case of `O=C(O)P(=O)(O)O` [FOSCARNET], the IC50 result in test [1] (cho-k1), in test [2], in test [3], in test [4], in test [5] and in test [6] was “Not Active” throughout. The IC50 entry in test [7] is on record as “Not Active”. Also, the Ki entry in test [2], in test [4] and in test [7] was “Not Active” each time.

Turning to `Cc1ccc(C)c(OCCCC(C)(C)C(=O)O)c1` [GEMFIBROZIL], the IC50 result in test [1] (cho-k1), in test [2], in test [3], in test [4], in test [5] and in test [6] was “Not Active” in each case. In addition, the IC50 result in test [7] is reported as “Not Active”. Also, the Ki result in test [2], in test [4] and in test [7] was “Not Active” in each case.

Take `O=c1c(-c2ccc(O)cc2)coc2cc(O)cc(O)c12` [GENISTEIN]: the IC50 in test [1] (read-out: IC50) is 14.9 µM; in test [2] it was “Not Active”; in test [3], “Not Active”; in test [4] it was “Not Active”; in test [5], “Not Active”; in test [6] it was “Not Active”. In addition, the IC50 result in test [7] is reported as “Not Active”. Besides, the Ki is 7.81 µM in test [1], “Not Active” in test [2], “Not Active” in test [4] and “Not Active” in test [7].

With `CCC1=C(C)CN(C(=O)NCCc2ccc(S(=O)(=O)NC(=O)N[C@H]3CC[C@H](C)CC3)cc2)C1=O` [GLIMEPIRIDE], the IC50 result in test [1] (cho-k1), in test [2], in test [3], in test [4], in test [5] and in test [6] was “Not Active” each time. The IC50 result in test [7] is on record as “Not Active”. In addition, the Ki result in test [2], in test [4] and in test [7] was “Not Active” throughout.

Regarding `Nc1cc(-c2ccncc2)c[nH]c1=O` [INAMRINONE], the IC50 entry in test [1] (cho-k1), in test [2], in test [3], in test [4], in test [5] and in test [6] was “Not Active” throughout. Besides, the 50% inhibitory concentration (IC50) entry in test [7] is on record as “Not Active”. For the same compound, the inhibitory constant (Ki) result in test [2], in test [4] and in test [7] was “Not Active” each time.

In the case of `CCCCC1=NC2(CCCC2)C(=O)N1Cc1ccc(-c2ccccc2-c2nnn[nH]2)cc1` [IRBESARTAN], the IC50 result in test [1] (cho-k1), in test [2], in test [3], in test [4], in test [5] and in test [6] was “Not Active” each time. Besides, the IC50 result in test [7] is recorded as “Not Active”. Moreover, the Ki result in test [2], in test [4] and in test [7] was “Not Active” throughout.

In the case of `CN1CCC(=C2c3ccccc3CC(=O)c3sccc32)CC1` [KETOTIFEN], the IC50 in test [1] (read-out: IC50) is 0.16 µM; in test [2], “Not Active”; in test [3] it was “Not Active”; in test [4], “Not Active”; in test [5] it was “Not Active”; in test [6] it was “Not Active”. Moreover, the IC50 result in test [7] was “Not Active”. Further, the Ki in test [1] was 0.084 µM; in test [2] it was “Not Active”; in test [4], “Not Active”; in test [7], “Not Active”.
